Experimental data reported in the NIST ThermoML archive (doi:10.1016/j.jct.2011.11.014).

Assay: mn = molality of the nth substance listed, in mol/kg
Conditions: 101.3 kPa, Liquid; for speed of sound: Sing-around technique in a fixed-path interferometer; for mass density: Vibrating tube method

COC(=O)CC(=O)[O-].[K+] [potassium 3-methoxy-3-oxopropanoate] + O
Conditions | mass density [kg/m3] | speed of sound [m/s]
288.15 K, m1 = 0.0128 | 1000.03 | 1468.1
288.15 K, m1 = 0.0148 | 1000.18 | 1468.3
288.15 K, m1 = 0.0189 | 1000.47 | 1468.8
288.15 K, m1 = 0.0253 | 1000.94 | 1469.6
288.15 K, m1 = 0.0316 | 1001.39 | 1470.3
288.15 K, m1 = 0.0444 | 1002.3 | 1471.8
288.15 K, m1 = 0.0512 | 1002.81 | 1472.4
288.15 K, m1 = 0.0637 | 1003.7 | 1474
288.15 K, m1 = 0.0836 | 1005.11 | 1476
288.15 K, m1 = 0.1286 | 1008.32 | 1481.1
288.15 K, m1 = 0.1868 | 1012.39 | 1487.4
288.15 K, m1 = 0.2644 | 1017.68 | 1495.4
288.15 K, m1 = 0.3285 | 1022.02 | 1502.2
288.15 K, m1 = 0.3591 | 1024 | 1505
293.15 K, m1 = 0.0128 | 999.122 | 1484
293.15 K, m1 = 0.0148 | 999.272 | 1484.2
293.15 K, m1 = 0.0189 | 999.553 | 1484.7
293.15 K, m1 = 0.0253 | 1000.02 | 1485.4
293.15 K, m1 = 0.0316 | 1000.47 | 1486.1
293.15 K, m1 = 0.0444 | 1001.37 | 1487.4
293.15 K, m1 = 0.0512 | 1001.87 | 1488.2
293.15 K, m1 = 0.0637 | 1002.74 | 1489.5
293.15 K, m1 = 0.0836 | 1004.14 | 1491.5
293.15 K, m1 = 0.1286 | 1007.31 | 1496.2
293.15 K, m1 = 0.1868 | 1011.34 | 1502
293.15 K, m1 = 0.2644 | 1016.57 | 1509.6
293.15 K, m1 = 0.3285 | 1020.84 | 1516.1
293.15 K, m1 = 0.3591 | 1022.81 | 1518.6
298.15 K, m1 = 0.0128 | 997.951 | 1498.1
298.15 K, m1 = 0.0148 | 998.099 | 1498.4
298.15 K, m1 = 0.0189 | 998.377 | 1498.8
298.15 K, m1 = 0.0253 | 998.84 | 1499.4
298.15 K, m1 = 0.0316 | 999.281 | 1500.1
298.15 K, m1 = 0.0444 | 1000.17 | 1501.3
298.15 K, m1 = 0.0512 | 1000.67 | 1502
298.15 K, m1 = 0.0637 | 1001.53 | 1503.3
298.15 K, m1 = 0.0836 | 1002.91 | 1505.1
298.15 K, m1 = 0.1286 | 1006.05 | 1509.5
298.15 K, m1 = 0.1868 | 1010.04 | 1514.9
298.15 K, m1 = 0.2644 | 1015.21 | 1522.1
298.15 K, m1 = 0.3285 | 1019.45 | 1528
298.15 K, m1 = 0.3591 | 1021.39 | 1530.5
303.15 K, m1 = 0.0128 | 996.543 | 1510.4
303.15 K, m1 = 0.0148 | 996.691 | 1510.6
303.15 K, m1 = 0.0189 | 996.967 | 1511
303.15 K, m1 = 0.0253 | 997.423 | 1511.6
303.15 K, m1 = 0.0316 | 997.862 | 1512.2
303.15 K, m1 = 0.0444 | 998.743 | 1513.3
303.15 K, m1 = 0.0512 | 999.236 | 1514
303.15 K, m1 = 0.0637 | 1000.1 | 1515.2
303.15 K, m1 = 0.0836 | 1001.46 | 1517
303.15 K, m1 = 0.1286 | 1004.57 | 1521.1
303.15 K, m1 = 0.1868 | 1008.52 | 1526.2
303.15 K, m1 = 0.2644 | 1013.64 | 1532.9
303.15 K, m1 = 0.3285 | 1017.84 | 1538.5
303.15 K, m1 = 0.3591 | 1019.76 | 1540.8
308.15 K, m1 = 0.0128 | 994.92 | 1520.9
308.15 K, m1 = 0.0148 | 995.066 | 1521.2
308.15 K, m1 = 0.0189 | 995.341 | 1521.5
308.15 K, m1 = 0.0253 | 995.793 | 1522.1
308.15 K, m1 = 0.0316 | 996.226 | 1522.7
308.15 K, m1 = 0.0444 | 997.101 | 1523.7
308.15 K, m1 = 0.0512 | 997.589 | 1524.4
308.15 K, m1 = 0.0637 | 998.449 | 1525.5
308.15 K, m1 = 0.0836 | 999.794 | 1527.1
308.15 K, m1 = 0.1286 | 1002.88 | 1531
308.15 K, m1 = 0.1868 | 1006.79 | 1535.8
308.15 K, m1 = 0.2644 | 1011.88 | 1542.1
308.15 K, m1 = 0.3285 | 1016.04 | 1547.4
308.15 K, m1 = 0.3591 | 1017.95 | 1549.5
313.15 K, m1 = 0.0128 | 993.096 | 1530
313.15 K, m1 = 0.0148 | 993.243 | 1530.2
313.15 K, m1 = 0.0189 | 993.515 | 1530.5
313.15 K, m1 = 0.0253 | 993.962 | 1531.1
313.15 K, m1 = 0.0316 | 994.391 | 1531.6
313.15 K, m1 = 0.0444 | 995.26 | 1532.6
313.15 K, m1 = 0.0512 | 995.745 | 1533.2
313.15 K, m1 = 0.0637 | 996.599 | 1534.3
313.15 K, m1 = 0.0836 | 997.933 | 1535.8
313.15 K, m1 = 0.1286 | 1001 | 1539.5
313.15 K, m1 = 0.1868 | 1004.88 | 1543.9
313.15 K, m1 = 0.2644 | 1009.93 | 1549.9
313.15 K, m1 = 0.3285 | 1014.06 | 1554.9
313.15 K, m1 = 0.3591 | 1015.96 | 1556.8

CCOC(=O)CC(=O)[O-].[K+] [potassium 3-ethoxy-3-oxopropanoate] + O
Conditions | mass density [kg/m3] | speed of sound [m/s]
288.15 K, m1 = 0.0116 | 999.92 | 1468.2
288.15 K, m1 = 0.0175 | 1000.34 | 1469
288.15 K, m1 = 0.0352 | 1001.57 | 1471.2
288.15 K, m1 = 0.0453 | 1002.29 | 1472.6
288.15 K, m1 = 0.0579 | 1003.14 | 1474.2
288.15 K, m1 = 0.1204 | 1007.45 | 1482.2
288.15 K, m1 = 0.18 | 1011.47 | 1489.7
288.15 K, m1 = 0.2369 | 1015.22 | 1496.6
288.15 K, m1 = 0.3076 | 1019.83 | 1505.1
293.15 K, m1 = 0.0116 | 999.013 | 1484.1
293.15 K, m1 = 0.0175 | 999.423 | 1484.9
293.15 K, m1 = 0.0352 | 1000.64 | 1487
293.15 K, m1 = 0.0453 | 1001.35 | 1488.3
293.15 K, m1 = 0.0579 | 1002.19 | 1489.8
293.15 K, m1 = 0.1204 | 1006.44 | 1497.2
293.15 K, m1 = 0.18 | 1010.41 | 1504.2
293.15 K, m1 = 0.2369 | 1014.11 | 1510.6
293.15 K, m1 = 0.3076 | 1018.65 | 1518.7
298.15 K, m1 = 0.0116 | 997.84 | 1498.2
298.15 K, m1 = 0.0175 | 998.247 | 1499
298.15 K, m1 = 0.0352 | 999.442 | 1500.9
298.15 K, m1 = 0.0453 | 1000.15 | 1502.1
298.15 K, m1 = 0.0579 | 1000.98 | 1503.5
298.15 K, m1 = 0.1204 | 1005.18 | 1510.4
298.15 K, m1 = 0.18 | 1009.1 | 1516.9
298.15 K, m1 = 0.2369 | 1012.76 | 1523
298.15 K, m1 = 0.3076 | 1017.25 | 1530.5
303.15 K, m1 = 0.0116 | 996.433 | 1510.5
303.15 K, m1 = 0.0175 | 996.835 | 1511.2
303.15 K, m1 = 0.0352 | 998.02 | 1513
303.15 K, m1 = 0.0453 | 998.716 | 1514.1
303.15 K, m1 = 0.0579 | 999.538 | 1515.4
303.15 K, m1 = 0.1204 | 1003.7 | 1521.9
303.15 K, m1 = 0.18 | 1007.58 | 1528
303.15 K, m1 = 0.2369 | 1011.19 | 1533.6
303.15 K, m1 = 0.3076 | 1015.64 | 1540.6
308.15 K, m1 = 0.0116 | 994.811 | 1521
308.15 K, m1 = 0.0175 | 995.206 | 1521.7
308.15 K, m1 = 0.0352 | 996.379 | 1523.4
308.15 K, m1 = 0.0453 | 997.071 | 1524.4
308.15 K, m1 = 0.0579 | 997.885 | 1525.7
308.15 K, m1 = 0.1204 | 1002 | 1531.8
308.15 K, m1 = 0.18 | 1005.85 | 1537.4
308.15 K, m1 = 0.2369 | 1009.43 | 1542.7
308.15 K, m1 = 0.3076 | 1013.83 | 1549.1
313.15 K, m1 = 0.0116 | 992.986 | 1530
313.15 K, m1 = 0.0175 | 993.379 | 1530.7
313.15 K, m1 = 0.0352 | 994.542 | 1532.2
313.15 K, m1 = 0.0453 | 995.228 | 1533.2
313.15 K, m1 = 0.0579 | 996.034 | 1534.4
313.15 K, m1 = 0.1204 | 1000.12 | 1540.1
313.15 K, m1 = 0.18 | 1003.93 | 1545.4
313.15 K, m1 = 0.2369 | 1007.47 | 1550.3
313.15 K, m1 = 0.3076 | 1011.84 | 1556.3
